Measurements: paper PMC9551276, “Design, synthesis and biological evaluation of novel orthosteric-allosteric ligands of the cannabinoid receptor type 2 (CB2R)” (Frontiers in Chemistry, 2022)
Where “and” joins values, the source holds several entries; their conditions need not be identical. Equal entries are not always repeated.

What was measured:
[1] = target: T1, hCB2R (Homo sapiens, UniProt P34972); assay: DiscoveRx HitHunter inhibition of FSK-stimulated cAMP accumulation; format: cell-based
Protocol: Inhibition of FSK-stimulated cAMP accumulation was measured using the DiscoveRx HitHunter assay.

[2] = target: T1, hCB2R; assay: DiscoveRx PathHunter βarrestin2 recruitment; format: cell-based
Protocol: βarrestin2 recruitment was quantified using the DiscoveRx PathHunter® assay. […] Detection solution was added to cells (DiscoveRx), and cells were incubated for 60 min at room temperature. Chemiluminescence was measured on a Cytation5 plate reader (top read, gain 200, integration time 10,000 ms).

[3] = target: T2, hCB1R (Homo sapiens, UniProt P21554); assay: [3H]CP55,940 radioligand displacement, CHO-K1 hCB1R membranes; format: binding; conditions: % [3H]CP55,940 bound, 1 nM radioligand, 2 h
T2 construct: expressed in transfected cells; host or cells: CHO-K1 (ATCC CCL-61) stably expressing hCB1R; membranes
T2 sequence (P21554 whole entry): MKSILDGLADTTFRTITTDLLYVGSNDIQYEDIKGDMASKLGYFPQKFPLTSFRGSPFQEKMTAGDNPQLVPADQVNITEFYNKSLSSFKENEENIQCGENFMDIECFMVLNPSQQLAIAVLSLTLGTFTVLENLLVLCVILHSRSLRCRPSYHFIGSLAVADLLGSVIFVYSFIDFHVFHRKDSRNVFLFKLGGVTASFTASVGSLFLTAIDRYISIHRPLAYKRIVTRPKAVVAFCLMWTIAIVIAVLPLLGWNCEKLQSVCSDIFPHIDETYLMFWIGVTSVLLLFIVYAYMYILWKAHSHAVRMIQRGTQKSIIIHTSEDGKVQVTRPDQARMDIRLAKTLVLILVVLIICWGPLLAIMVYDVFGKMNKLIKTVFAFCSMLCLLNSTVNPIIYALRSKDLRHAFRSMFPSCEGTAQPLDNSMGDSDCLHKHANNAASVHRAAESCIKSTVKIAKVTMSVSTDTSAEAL
Protocol: (§1) CHO-K1 cells were thawed, diluted in Tris buffer (50 mM Tris [pH 7.4]) and homogenized in a 1 ml hand-held homogenizer. hCB1R and hCB2R CHO-K1 cell membranes were collected by cavitation in a pressure cell, and sedimented by ultracentrifugation. Pellets were resuspended in TME buffer (50 mM Tris, 5 mM MgCl2, 1 mM EDTA [pH 7.4]), and protein concentration was measured via the Bradford method according to the manufacturer’s directions (Bio-Rad Laboratories, Mississauga, ON). […] Radioligand binding began with the addition of CHO-K1 cell membranes (25 µg protein per sample). Assays were performed for 120 min at 37°C and stopped by the addition of ice-cold Tris binding buffer (pH 7.4), followed by vacuum filtration using a 24-well sampling manifold (Brandel Cell Harvester; Brandel Inc., Gaithersburg, MD, United States ). Brandel GF/B filter paper was soaked with wash buffer at 4 °C for at least 24 h. Each filter paper was washed 6 times with a 1.2 ml aliquot of Tris-binding buffer (pH 7.4), then air-dried and submerged in 5 ml of scintillation fluid (Ultima Gold XR, PerkinElmer). Liquid scintillation spectrometry was used to quantify radioactivity.

[4] = target: T1, hCB2R; assay: [3H]CP55,940 radioligand displacement, CHO-K1 hCB2R membranes; format: binding; conditions: for hCB2R E min (% CP55,940) ± S.E.M: % [3H]CP55,940 bound, 1 nM radioligand, 2 h; for Effect on [3H]CP55,940 bound to hCB2R: [3H]CP55,940 displacement
Protocol: as §1, with “Assays were performed for 120 min at 37°C and stopped by the addition of ice-cold Tris binding buffer (pH 7.4), followed by vacuum filtration using a 24-well sampling manifold (Brandel Cell Harvester; Brandel Inc., Gaithersburg, MD, United States ).” left out

[5] = tested on: human microglial cells (HMC3); assay: IL-6 and IL-10 release (ELISA) in LPS/TNFα-stimulated HMC3 cells; format: cell-based
Protocol: The concentrations of pro-inflammatory (IL-6) and anti-inflammatory (IL-10) interleukins were determined by performing specific ELISA assays (MyBioSource, San Diego, CA, United States ) on collected culture media. Human microglial cells (HMC3) were exposed to pretreatment with test compounds for 1 h followed by stimulation with LPS (10 μg/ml)/TNFα (50 ng/ml) for 24 h. In competition experiments, the CB2R antagonist (SR144528, 1 μM) or the CB2R positive allosteric modulator (EC21a 1 or 10 μM) were administered 15 min before agonist administration.

[6] = CHO-K1 hCB2R, 10 µM FSK, 90 min
[7] = CHO-K1 hCB2R, 10 µM FSK, 90 min, read-out: Inhibition of cAMP EC50 (95% C.I.)
[8] = CHO-K1 hCB2R, 90 min, read-out: βarrestin2 recruitment EC50 (95% C.I.)

T1 sequence (P34972 whole entry): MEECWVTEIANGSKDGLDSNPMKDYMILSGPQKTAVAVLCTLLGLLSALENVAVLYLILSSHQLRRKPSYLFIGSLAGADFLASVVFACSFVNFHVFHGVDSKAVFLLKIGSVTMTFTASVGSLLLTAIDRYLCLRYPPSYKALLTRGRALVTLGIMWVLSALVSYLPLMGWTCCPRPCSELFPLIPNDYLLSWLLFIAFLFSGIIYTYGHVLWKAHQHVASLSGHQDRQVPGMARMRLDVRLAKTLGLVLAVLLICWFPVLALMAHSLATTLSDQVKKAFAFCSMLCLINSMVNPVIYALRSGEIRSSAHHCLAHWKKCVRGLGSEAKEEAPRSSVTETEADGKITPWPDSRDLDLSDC

Compound: CC1CCC(NC(=O)c2cc3cccnc3n(CCCCCO)c2=O)CC1 (stereo not shown) [LV62, reference compound]
- EC50 [1]: 58 nM
- Inhibition of cAMP E max (% CP55,940) ± S.E.M [1, 6]: 110 ± 8.8 % CP55,940 and 110 ± 5.3 % CP55,940
- βarrestin2 recruitment E max (% CP55,940) ± S.E.M ([2]; CHO-K1 hCB2R, 90 min): 65 ± 1.4 % CP55,940
- hCB1R E min (% CP55,940) ± S.E.M [3]: 106 ± 3.6 % CP55,940
- IC50 [4]: 0.65 nM
- hCB2R E min (% CP55,940) ± S.E.M [4]: 16 ± 11.9 % CP55,940
- Effect on [3H]CP55,940 bound to hCB2R [4]: fully displaced

Compound: Cc1c(Br)cn(Cc2ccc(F)cc2)c(=O)c1NC(=O)C1CCCCCC1 [EC21a, reference compound]
- Response in inhibition of FSK-stimulated cAMP accumulation ([1]; CHO-K1 hCB2R): no response was detected
- Inhibition of cAMP E max (% CP55,940) ± S.E.M [1, 6]: 2.5 ± 0.53 % CP55,940
- EC50 ([1]; Inhibition of cAMP EC50 (95% C.I.), CHO-K1 hCB2R, 10 µM FSK, 90 min): > 10000 nM
- EC50 ([1]; Inhibition of cAMP EC50 (95% C.I.), co-administration, EC21a concentration-response in the presence of 10 nM LV62, 10 µM FSK, 90 min): 4.3 nM
- EC50 [2]: > 10000 nM
- Response in βarrestin2 recruitment ([2]; CHO-K1 hCB2R): no response was detected
- βarrestin2 recruitment E max (% CP55,940) ± S.E.M ([2]; CHO-K1 hCB2R, 90 min): 1.4 ± 0.96 % CP55,940
- hCB1R E min (% CP55,940) ± S.E.M [3]: 103 ± 2.5 % CP55,940
- IC50 [4]: 36 nM
- hCB2R E min (% CP55,940) ± S.E.M [4]: 115 ± 7.9 % CP55,940
- Effect on [3H]CP55,940 bound to hCB2R [4]: increased
- Effect of co-administered EC21a on JR64a anti-inflammatory activity (IL-6 release) ([5]; EC21a at equimolar or higher doses, LPS/TNFα): no effects on JR64a anti-inflammatory activity
- Effect of equimolar EC21a on LV62 anti-inflammatory activity ([5]; LV62 1 or 10 μM with EC21a 1:1, LPS/TNFα 24 h): enhanced LV62 anti-inflammatory activity

Compound: Cc1c(Br)cn(Cc2cn(CCCCC(=O)NC3CCC(NC(=O)c4cc5cccnc5n(Cc5ccc(F)cc5)c4=O)CC3)nn2)c(=O)c1NC(=O)C1CCCCCC1 (stereo not shown) [JR16a, N-(4-(5-(4-((5-bromo-3-(cycloheptanecarboxamido)-4-methyl-2-oxopyridin-1(2H)-yl)methyl)-1H-1,2,3-triazol-1-yl)pentanamido)cyclohexyl)-1-(4-fluorobenzyl)-2-oxo-1,2-dihydro-1,8-naphthyridine-3-carboxamide]
- Inhibition of cAMP E max (% CP55,940) ± S.E.M [1, 6]: 36 ± 8.6 % CP55,940
- EC50 [1, 7]: 350 nM
- βarrestin2 recruitment E max (% CP55,940) ± S.E.M ([2]; CHO-K1 hCB2R, 90 min): 27 ± 4.2 % CP55,940
- melting point: 113 °C (dec.)

Compound: Cc1c(Br)cn(CCCCCn2c(=O)c(C(=O)NC3CCC(C)CC3)cc3cccnc32)c(=O)c1NC(=O)C1CCCCCC1 (stereo not shown) [JR61a, 1-(5-(5-bromo-3-(cycloheptanecarboxamido)-4-methyl-2-oxopyridin-1(2H)-yl)pentyl)-N-(4-methylcyclohexyl)-2-oxo-1,2-dihydro-1,8-naphthyridine-3-carboxamide]
- EC50 [1]: 420 nM
- Inhibition of cAMP E max (% CP55,940) ± S.E.M [1, 6]: 46 ± 1.7 % CP55,940
- EC50 [2]: > 10000 nM
- βarrestin2 recruitment E max (% CP55,940) ± S.E.M ([2]; CHO-K1 hCB2R, 90 min): 34 ± 2.2 % CP55,940
- melting point: 118 °C (dec.)

Compound: Cc1c(Br)cn(CCCCOCCCCn2c(=O)c(C(=O)NC3CCC(C)CC3)cc3cccnc32)c(=O)c1NC(=O)C1CCCCCC1 (stereo not shown) [JR60a, 1-(4-(4-(5-bromo-3-(cycloheptanecarboxamido)-4-methyl-2-oxopyridin-1(2H)-yl)butoxy)butyl)-N-(4-methylcyclohexyl)-2-oxo-1,2-dihydro-1,8-naphthyridine-3-carboxamide]
- EC50 [1]: 770 nM
- Inhibition of cAMP E max (% CP55,940) ± S.E.M [1, 6]: 46 ± 4.4 % CP55,940
- EC50 [2]: > 10000 nM
- βarrestin2 recruitment E max (% CP55,940) ± S.E.M ([2]; CHO-K1 hCB2R, 90 min): 36 ± 9.2 % CP55,940
- melting point: 118 °C (dec.)

Compound: Cc1c(Br)cn(CCCc2cn(CCCCCn3c(=O)c(C(=O)NC4CCC(C)CC4)cc4cccnc43)nn2)c(=O)c1NC(=O)C1CCCCCC1 (stereo not shown) [JR22a, 1-(5-(4-(3-(5-bromo-3-(cycloheptanecarboxamido)-4-methyl-2-oxopyridin-1(2H)-yl)propyl)-1H-1,2,3-triazol-1-yl)pentyl)-N-(4-methylcyclohexyl)-2-oxo-1,2-dihydro-1,8-naphthyridine-3-carboxamide]
- EC50 [1]: 62 nM
- Inhibition of cAMP E max (% CP55,940) ± S.E.M [1, 6]: 38 ± 5.5 % CP55,940
- EC50 [2]: > 10000 nM
- βarrestin2 recruitment E max (% CP55,940) ± S.E.M ([2]; CHO-K1 hCB2R, 90 min): 33 ± 3.1 % CP55,940
- melting point: 114 °C (dec.)

Compound: Cc1c(Br)cn(Cc2cn(CCCCCn3c(=O)c(C(=O)NC4CCC(C)CC4)cc4cccnc43)nn2)c(=O)c1NC(=O)C1CCCCCC1 (stereo not shown) [JR26a, 1-(5-(4-((5-bromo-3-(cycloheptanecarboxamido)-4-methyl-2-oxopyridin-1(2H)-yl)methyl)-1H-1,2,3-triazol-1-yl)pentyl)-N-(4-methylcyclohexyl) -2-oxo-1,2-dihydro-1,8-naphthyridine-3-carboxamide]
- Inhibition of cAMP E max (% CP55,940) ± S.E.M [1, 6]: 41 ± 5.1 % CP55,940
- EC50 [1, 7]: 110 nM
- βarrestin2 recruitment E max (% CP55,940) ± S.E.M ([2]; CHO-K1 hCB2R, 90 min): 39 ± 6.1 % CP55,940
- EC50 [2, 8]: > 10000 nM
- melting point: 116 °C (dec.)

Compound: Cc1c(Br)cn(CCOCCn2c(=O)c(C(=O)NC3CCC(C)CC3)cc3cccnc32)c(=O)c1NC(=O)C1CCCCCC1 (stereo not shown) [JR58a, 1-(2-(2-(5-bromo-3-(cycloheptanecarboxamido)-4-methyl-2-oxopyridin-1(2H)-yl)ethoxy)ethyl)-N-(4-methylcyclohexyl)-2-oxo-1,2-dihydro-1,8-naphthyridine-3-carboxamide]
- EC50 [1]: 270 nM
- Inhibition of cAMP E max (% CP55,940) ± S.E.M [1, 6]: 45 ± 2.9 % CP55,940
- EC50 [2]: > 10000 nM
- βarrestin2 recruitment E max (% CP55,940) ± S.E.M ([2]; CHO-K1 hCB2R, 90 min): 51 ± 2.8 % CP55,940
- melting point: 110 °C (dec.)

Compound: Cc1c(Br)cn(CCCc2cn(CCCCC(=O)NC3CCC(NC(=O)c4cc5cccnc5n(Cc5ccc(F)cc5)c4=O)CC3)nn2)c(=O)c1NC(=O)C1CCCCCC1 (stereo not shown) [JR14a, N-(4-(5-(4-(3-(5-bromo-3-(cycloheptanecarboxamido)-4-methyl-2-oxopyridin-1(2H)-yl)propyl)-1H-1,2,3-triazol-1-yl)pentanamido)cyclohexyl)-1-(4-fluorobenzyl)-2-oxo-1,2-dihydro-1,8-naphthyridine-3-carboxamide]
- Response in inhibition of FSK-stimulated cAMP accumulation ([1]; CHO-K1 hCB2R): modest partial agonist activity
- Inhibition of cAMP E max (% CP55,940) ± S.E.M [1, 6]: 41 ± 5.7 % CP55,940
- EC50 [1, 7]: 150 nM
- βarrestin2 recruitment E max (% CP55,940) ± S.E.M ([2]; CHO-K1 hCB2R, 90 min): 39 ± 0.93 % CP55,940
- EC50 [2, 8]: 25 nM
- hCB1R E min (% CP55,940) ± S.E.M [3]: 98 ± 2.5 % CP55,940
- IC50 [4]: 1.8 nM
- hCB2R E min (% CP55,940) ± S.E.M [4]: 59 ± 12.3 % CP55,940
- melting point: 108 °C (dec.)
